Source: PubChem BioAssay (NCI)
“And” between values parts separate entries of the source, which are not always exact repeats. Identical values can stand only once.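 A five-concentration, 48-hour dose response in 96-well plates underlies each endpoint, interpolated linearly between surrounding concentrations. The concentration for 50% growth inhibition is given as GI50. TGI: total growth inhibition.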

What was measured:
Test in all cases: NCI anticancer screen, dose series, 48 h
[1] = system: HS 578T breast
[2] = system: KM12 colon
[3] = system: LOX IMVI melanoma
[4] = system: NCI-H226 lung
[5] = system: SF-268 CNS
[6] = system: SF-295 CNS
[7] = system: SK-MEL-28 melanoma
[8] = system: SN12C renal
[9] = system: SNB-19 CNS
[10] = system: SNB-75 CNS

SMILES	GI50 [1]	TGI [1]	GI50 [2]	TGI [2]	GI50 [3]	TGI [3]	GI50 [4]	TGI [4]	GI50 [5]	TGI [5]	GI50 [6]	TGI [6]	GI50 [7]	TGI [7]	GI50 [8]	TGI [8]	GI50 [9]	TGI [9]	GI50 [10]	TGI [10]
COC(=O)c1ccc2[nH]c(O)c(C(=Nc3ccc(N(C)C(=O)CN4CCN(C)CC4)cc3)c3ccc4c(c3)OCO4)c2c1	0.144 µM	2.56 µM	0.0429 µM	1.69 µM	0.415 µM	1.9 µM	0.616 µM	6.13 µM	0.929 µM	3.86 µM	0.754 µM	2.16 µM	1.21 µM	2.92 µM	0.321 µM	9.61 µM	1.06 µM	6.05 µM	0.0752 µM	1.65 µM
COc1ccc2c(c1)OC1=C(C(=O)OC1)C2c1cc(OC)c2c(c1)OCCO2 (stereo not drawn)	0.0361 µM	> 100 µM	0.0464 µM	> 100 µM	0.0802 µM	> 100 µM			0.156 µM	> 100 µM	0.0312 µM	> 100 µM	0.0517 µM	> 100 µM	0.0972 µM	> 100 µM	0.0697 µM	> 100 µM	0.0346 µM	> 100 µM
CCN(CC)CCNC(Cc1ccccc1)c1ccc(OCc2ccccc2)cc1 (stereo not drawn)	4.32 µM	23.8 µM	5.22 µM	18.2 µM	4.19 µM	15.9 µM	13.8 µM	34.8 µM	7.57 µM	22.3 µM	2.04 µM	4.57 µM	1.85 µM	4.03 µM	6.68 µM	20.8 µM	9.65 µM	22.8 µM	4.29 µM	18 µM
O=C(O)CCCc1ccc2ccc3ccccc3c2c1		> 100 µM		> 100 µM		> 100 µM		> 100 µM		> 100 µM		> 100 µM		> 100 µM		> 100 µM		> 100 µM		87.4 µM
C=C(C)[C@@H]1CC[C@]2(COCCCN)CC[C@]3(C)[C@H](CC[C@@H]4[C@@](C)(CCCNCCCN)[C@H](C(=C)C)CC[C@]43C)[C@@H]12	2.16 µM	5.54 µM	1.74 µM	3.14 µM					1.84 µM	3.72 µM	1.94 µM	3.83 µM	1.72 µM	3.14 µM	1.58 µM	2.96 µM	1.84 µM	3.56 µM		
O=C(Oc1ccc[nH]c1=O)c1cc([N+](=O)[O-])cc([N+](=O)[O-])c1	> 100 µM	> 100 µM	36.3 µM	> 100 µM	> 100 µM	> 100 µM	> 100 µM	> 100 µM	> 100 µM	> 100 µM	26.6 µM	> 100 µM	> 100 µM	> 100 µM	> 100 µM	> 100 µM	> 100 µM	> 100 µM	> 100 µM	> 100 µM
CNC(=O)OCc1nc(SSC(C)(C)C)n(C)c1COC(=O)NC		7.9 µM		38.8 µM		8.61 µM		28.3 µM		16.7 µM		31.7 µM		4.67 µM		13.7 µM		33.9 µM		22.4 µM
O=C1C(=O)c2ccccc2C(O)=C1C(C1=C(O)c2ccccc2C(=O)C1=O)c1ccc(Cl)cc1		66.4 µM		25 µM		7.78 µM		52.9 µM		59.8 µM		13.8 µM		55.5 µM		3.66 µM		41.8 µM		9.83 µM
COc1cc(C2c3cc4c(cc3OC(C)(N3CCCC3)C2C)OCO4)cc(OC)c1OC (stereo not drawn)		0.721 µM		9.45 µM		> 31.4 µM		2.05 µM		> 92.9 µM		0.661 µM		> 100 µM		30.8 µM		> 100 µM		0.65 µM
O=C(O)c1ccc(CN2CCC(CN[C@@H]3C[C@H]3c3ccccc3)CC2)cc1	> 100 µM	> 100 µM	> 100 µM	> 100 µM	> 100 µM	> 100 µM	> 100 µM	> 100 µM	> 100 µM	> 100 µM	> 100 µM	> 100 µM	> 100 µM	> 100 µM	> 100 µM	> 100 µM	> 100 µM	> 100 µM	> 100 µM	> 100 µM
CCN(CC)CCCC(CCl)Nc1ccnc2cc(Cl)ccc12 (stereo not drawn)	17.3 µM and 18.1 µM	42.5 µM and 44.3 µM	16.7 µM and 16.2 µM	34 µM and 50.6 µM	8.43 µM and 8.53 µM	42.3 µM and 31.4 µM	34.7 µM and 3.99 µM	85.2 µM and > 39.1 µM	17.1 µM and 21.6 µM	49.8 µM and 97 µM	13.1 µM and 12.6 µM	26.3 µM and 28.6 µM	18.8 µM and 19 µM	54.7 µM and > 63 µM	52.1 µM and 48 µM	> 100 µM	94.8 µM and > 89.7 µM	> 100 µM	26.1 µM and 29.5 µM	59.2 µM and > 73.6 µM
CC(=O)C1C(c2ccccc2)C2(C)OC(=O)C(C#N)C12C (stereo not drawn)				> 100 µM		> 100 µM		> 100 µM		> 100 µM		> 100 µM		> 100 µM		> 100 µM		> 100 µM		> 100 µM
CCN1C(=O)c2ccc3c4c(ccc(c24)C1=O)C(=O)N(CCCNCc1ccccc1OC)C3=O	2.21 µM	8.35 µM	0.63 µM	3.75 µM	0.314 µM	1.31 µM	1.28 µM	2.77 µM	1.15 µM	5.75 µM	0.377 µM	1.37 µM	1.58 µM	3.24 µM	0.327 µM	1.32 µM	1.33 µM	2.97 µM	1.57 µM	3.01 µM
Cc1ccc(S(=O)(=O)N=Nc2c(O)[nH]c3cc(O)c(C(=O)O)cc23)cc1		> 100 µM		> 100 µM		> 100 µM		> 100 µM		> 100 µM		> 100 µM		> 100 µM		> 100 µM		> 100 µM		> 100 µM
Cc1nnc(-c2ccc(C)c(-c3ccc(C(=O)Nc4cccc(C#N)c4)cc3)c2)o1	> 25 µM	> 25 µM	> 25 µM	> 25 µM	> 25 µM	> 25 µM	> 10.9 µM	> 25 µM	> 25 µM	> 25 µM	> 25 µM	> 25 µM	> 25 µM	> 25 µM	> 25 µM	> 25 µM	> 25 µM	> 25 µM	> 25 µM	> 25 µM
CCN1C(=O)/C(=C/c2c(Cl)[nH]c3cc(C)c(OC)cc23)c2ccccc21	2.86 µM	7.23 µM	0.483 µM	12.2 µM	9.72 µM	> 100 µM	32.2 µM	> 100 µM	6.18 µM	> 100 µM	1.49 µM	40.6 µM	49.3 µM	> 100 µM	5.51 µM	83.1 µM	3.43 µM	48.2 µM	13.8 µM	> 100 µM

SMILES	GI50 [1]	TGI [1]	GI50 [2]	TGI [2]	GI50 [3]	TGI [3]	GI50 [4]	TGI [4]	GI50 [5]	TGI [5]	GI50 [6]	TGI [6]	GI50 [7]	TGI [7]	GI50 [8]	TGI [8]	GI50 [9]	TGI [9]	GI50 [10]	TGI [10]
C=C(C)C1CC2(C)C(C)CC(O)CC2C(OC(=O)C=C(C)C)C1O (stereo not drawn)		> 100 µM		> 100 µM		> 100 µM		46.2 µM		> 100 µM		84.3 µM		> 100 µM		> 100 µM		> 100 µM		40.5 µM
CC1(C)N=C(N)N=C(N)N1c1ccc(CCC(=O)Nc2ccc(S(=O)(=O)F)cc2)c(Cl)c1	> 84.7 µM	> 100 µM	0.243 µM	28.3 µM	0.402 µM	> 100 µM	14.4 µM	> 100 µM	0.507 µM	> 100 µM	1.09 µM	> 100 µM	22.8 µM	> 100 µM	0.487 µM	> 100 µM	5.22 µM	> 100 µM	9.75 µM	> 100 µM
CN(c1ccc(NC(=O)Nc2c(Cl)cccc2Cl)cc1)c1ccnc(Nc2cccc(CS(C)(=O)=O)c2)n1	4.35 µM	> 17.6 µM	0.104 µM	5.12 µM	2.37 µM	> 14.7 µM	4.67 µM	> 20.2 µM	2.19 µM	10.7 µM	1.54 µM	12.6 µM	3.56 µM	9.47 µM	3.37 µM	10.6 µM	4.5 µM	> 25 µM	1.69 µM	7 µM
O=NNc1ccc2ccccc2n1		> 100 µM		> 100 µM		> 100 µM		> 100 µM		> 100 µM		> 100 µM		> 100 µM		> 100 µM		> 100 µM		> 100 µM
CCCCCCCCCCCCCCCCCCOC[C@H](COP(=O)(O)O[C@H]1[C@H](O)[C@@H](O)[C@H](O)C[C@H]1O)OC	> 100 µM and 17.9 µM	> 100 µM and 34.8 µM	25.9 µM and 4.67 µM	> 100 µM and 28.1 µM	47.1 µM and 13.4 µM	> 100 µM and 27.3 µM	> 100 µM and 24 µM	> 100 µM and 44.5 µM	> 100 µM and 15 µM	> 100 µM and 29.7 µM	98.4 µM and 15.3 µM	> 100 µM and 30.8 µM		> 100 µM and 33.8 µM	> 100 µM and 12.2 µM	> 100 µM and 25.2 µM				59.6 µM and 27.9 µM
O=S(=O)(C1=CC(S(=O)(=O)c2ccccc2)CN(Cc2ccccc2)C1c1cccc2ccccc12)c1ccccc1 (stereo not drawn)				> 69 µM		> 69 µM		> 69 µM		> 69 µM		> 69 µM		> 69 µM		> 69 µM		> 69 µM		> 69 µM
O=c1[nH]c2ccccc2cc1-c1nc2ccc(Cl)cc2[nH]1			0.385 µM	> 100 µM	4.43 µM	> 100 µM	2.71 µM	> 100 µM	6.09 µM	> 100 µM	9.63 µM	> 100 µM	6.66 µM	45.7 µM	3.17 µM	> 100 µM	29.8 µM	> 100 µM	2.98 µM	> 100 µM
CCCC1(CC(=O)O)OCCc2c1[nH]c1ccccc21 (stereo not drawn)				> 100 µM		> 100 µM		> 100 µM		> 100 µM		> 100 µM		> 100 µM		> 100 µM		> 100 µM		> 100 µM
N#CCC(=O)N/N=C1/C(=O)N(c2ccc(Cl)cc2)C(=O)C(=O)C1c1nc2ccccc2s1 (stereo not drawn)				> 100 µM		> 100 µM		> 100 µM		> 100 µM		> 100 µM		> 100 µM		> 100 µM		> 100 µM		63.7 µM
CCCCCCCCCCCC(=O)OCCOCCOCCOCCOCCOC(=O)CCCCCCCCCCC				> 100 µM		> 100 µM		> 100 µM		> 100 µM		> 100 µM		> 100 µM		> 100 µM		> 100 µM		> 100 µM
COc1cc(Nc2ncccc2C(=O)Nc2nc3ccc(F)cc3s2)cc(OC)c1OC			3.79 µM	> 100 µM	3.87 µM	> 100 µM	2.95 µM	> 100 µM	6.56 µM	> 100 µM	2.55 µM	> 100 µM	4.33 µM	> 100 µM	4.73 µM	> 100 µM	3.49 µM	> 100 µM	4.48 µM	> 100 µM
Nc1ncc(-c2cnn(C3CCNCC3)c2)cc1-c1nc2cc(Cl)ccc2o1	0.385 µM	1.77 µM	0.392 µM	1.71 µM	1.55 µM	3.07 µM			1.38 µM	2.8 µM	1.96 µM	3.68 µM	1.3 µM	2.68 µM	1.24 µM	2.71 µM	1.56 µM	2.97 µM	1.65 µM	3.06 µM
C=CC[P@]1(=O)O[C@H](c2ccccc2)[C@H](C)N1C				> 100 µM		> 100 µM		> 100 µM		> 100 µM		> 100 µM		> 100 µM		> 100 µM		> 100 µM		> 100 µM
NC1=NN(c2ccccc2)C(=O)C1C(=O)CCC(=O)Nc1cccc(Cl)c1 (stereo not drawn)				> 100 µM		> 100 µM		> 100 µM		> 100 µM		> 100 µM		> 100 µM		> 100 µM		> 100 µM		> 100 µM
O=C(Nc1ccc(Cl)cc1)C1C(=O)C(=O)N(c2ccc(Cl)cc2)C1=O (stereo not drawn)				> 100 µM		> 100 µM		> 100 µM		> 100 µM		> 100 µM		> 100 µM		> 100 µM		> 100 µM		> 100 µM
CSC(SC)(C(=O)O)c1cc(-c2c(Cl)cccc2Cl)no1		> 100 µM				> 100 µM		> 100 µM		> 100 µM		> 100 µM		> 100 µM		> 100 µM		> 100 µM		> 100 µM
